Reference: ChEMBL document CHEMBL3044528, “Potential new fungicides: N-acyl-5-methyl-3(2H)-isoxazolone derivatives” (2012)

Key:
Type in all cases: functional
[1] = system: Alternaria alternata; assay: Fungicidal activity against Alternaria alternata APS-38 assessed as mycelial growth inhibition at 25 mg/L after 3 days; details: APS-38, 72 h, read-out: GI
[2] = system: Gaeumannomyces graminis; assay: Fungicidal activity against Gaeumannomyces graminis MAFF305168 assessed as mycelial growth inhibition at 25 mg/L after 1 day; details: MAFF305168, 24 h, read-out: GI
[3] = system: Rhizoctonia solani; assay: Fungicidal activity against Rhizoctonia solani ET0007 assessed as mycelial growth inhibition at 25 mg/L after 1 day; details: ET0007, 24 h, read-out: GI
[4] = system: Microdochium nivale; assay: Fungicidal activity against Microdochium nivale IFO-7432 assessed as mycelial growth inhibition at 25 mg/L after 3 days; details: IFO-7432, 72 h, read-out: GI
[5] = system: Zymoseptoria tritici; assay: Fungicidal activity against Zymoseptoria tritici S3 assessed as mycelial growth inhibition at 25 mg/L after 14 days; details: S3, 336 h, read-out: GI
[6] = system: Rhynchosporium secalis; assay: Fungicidal activity against Rhynchosporium secalis IFO-5290 assessed as mycelial growth inhibition at 25 mg/L after 14 days; details: IFO-5290, 336 h, read-out: GI
[7] = system: Cercospora beticola; assay: Fungicidal activity against Cercospora beticola Be-2-6 assessed as mycelial growth inhibition at 25 mg/L after 7 days; details: Be-2-6, 168 h, read-out: GI
[8] = system: Fusarium graminearum; assay: Fungicidal activity against Fusarium graminearum H3 assessed as mycelial growth inhibition at 25 mg/L after 3 days; details: H3, 72 h, read-out: GI
[9] = system: Pyrenophora graminea; assay: Fungicidal activity against Pyrenophora graminea IFO-7507 assessed as mycelial growth inhibition at 25 mg/L after 3 days; details: IFO-7507, 72 h, read-out: GI

| Structure (SMILES) | inhibition of growth at 25 µg/mL [1] | inhibition of growth at 25 µg/mL [2] | inhibition of growth at 25 µg/mL [3] | inhibition of growth at 25 µg/mL [4] | inhibition of growth at 25 µg/mL [5] | inhibition of growth at 25 µg/mL [6] | inhibition of growth at 25 µg/mL [7] | inhibition of growth at 25 µg/mL [8] | inhibition of growth at 25 µg/mL [9] |
| --- | --- | --- | --- | --- | --- | --- | --- | --- | --- |
| CCn1oc(C)cc1=O | 21% | 3% | 0% | 0% | 0% | 13% | 2% | 4% | 6% |
| CCCn1oc(C)cc1=O | 11% | 3% | 15% | 4% | 0% | 2% | 4% | 8% | 16% |
| Cc1cc(O)no1 [HYMEXAZOL] | 74% | 56% | 28% | 77% | 86% | 100% | 88% | 45% | 80% |
